Results: patent publication US12691070B2, “Cationic lipids and preparation method thereof” (RiboX Therapeutics HK Limited, priority 2023, dated 2026)

Columns and labels:
[1] = LNP size and polydispersity index (PDI) by dynamic light scattering; assay type: physicochemical; settings: for Size: in nm (unit assumed)
Outline: (§1)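 Ribogreen fluorescence with and without Triton X-100 gave encapsulation as 100% − (intact/lysed) signal; DLS size, PDI and zeta potential measured on a Zetasizer. Particles: 50:10:38.5:1.5 lipid mix, luciferase circRNA or mRNA, lipid:nucleotide 15 or 6, microfluidic assembly at pH 4.5, PBS-dialyzed.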

[2] = LNP zeta potential (Zetasizer); assay type: physicochemical
Outline: as §1

[3] = RNA encapsulation efficacy by Quant-IT Ribogreen kit; assay type: physicochemical; settings: for Encapsulation Efficiency %: LNP with cirRNA (SEQ ID NO: 1); for Encapsulation Efficiency: LNP with mRNA (SEQ ID NO: 2)
Outline: as §1

[4] = tested on: Hep G2 cells; experiment: In vitro expression of firefly-luciferase, Hep G2; assay type: cell-based
Outline: (§2)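 Luminescence from cell lysates reports expression: luciferase activity was measured 72 h after transfection with 100 ng/mL RNA-LNPs encoding firefly luciferase.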

[5] = tested on: RAW 264.7 cells; experiment: In vitro expression of firefly-luciferase, RAW 264.7; assay type: cell-based
Outline: as §2

[6] = tested on: Hep G2 cells; experiment: In vitro toxicity (CellTiter-Glo cell viability), Hep G2; assay type: cell-based;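 further: percent of untreated cells luminescence signal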
Outline: (§3)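 Viability after a 72 h incubation with 1 μg/mL RNA-LNP formulations was assessed luminometrically using CellTiter-Glo.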

[7] = tested on: RAW 264.7 cells; experiment: In vitro toxicity (CellTiter-Glo cell viability), RAW 264.7; assay type: cell-based;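 further: percent of untreated cells luminescence signal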
Outline: as §3

[8] = tested on: BALB/C mice; experiment: In vivo expression, whole-body luminescence (IVIS)
Method: 6-8 week old, female BALB/C mice were injected with 0.05 mg*kg-1 of RNA-LNPs encoding for firefly-luciferase by intravenous injection. At 6 hours post injection, animals were intraperitoneally injected with 15 mg/ml of Luciferin substrate and whole-body luminescence was determined by a bioluminescent in vivo imaging system (IVIS).

[9] = tested on: MCP-I; experiment: MCP-I cytokine elevation in serum; assay type: in vivo; settings: cirRNA (SEQ ID NO: 1) LNPs, mice
Method: 6-8 week old, female BALB/C mice were injected with 0.5 mg*kg-1 of RNA LNPs by intravenous injection. At 2 and 24 hours post injection, animals were bled and sera concentrations of MCP-I were determined by an immunoassay (Luminex).

[10] = tested on: Alanine Aminotransferase (ALT); experiment: Liver enzyme elevation in serum, ALT; assay type: in vivo; settings: cirRNA (SEQ ID NO: 1) LNPs, BALB/C mice, intravenous 0.5 MPK
Method: (§4) 6-8 week old, female BALB/C mice were injected with 0.5 mg*kg-1 of RNA LNPs by intravenous injection. At 2 and 24 hours post injection, animals were bled and sera concentrations of Alanine Aminotransferase (ALT) and Aspartate Aminotransferase (AST) were determined by a blood chemistry analyzer.

[11] = tested on: Aspartate Aminotransferase (AST); experiment: Liver enzyme elevation in serum, AST; assay type: in vivo; settings: cirRNA (SEQ ID NO: 1) LNPs, BALB/C mice, intravenous 0.5 MPK
Method: as §4

[12] = tested on: BALB/C mice; experiment: Local tolerance determination by footpad injection; assay type: in vivo; settings: cirRNA (SEQ ID NO: 1) LNP, 0.175 mg*kg-1 subcutaneous into the footpad, 24 hours post minus prior
Method: 6-8 week old, female BALB/C mice were injected with 0.175 mg*kg-1 RNA LNPs by subcutaneous injection into the footpad. Prior to, and 24 hours post injections, injected footpad thickness was determined by a caliper.

[13] = cirRNA (SEQ ID NO: 1) LNPs, firefly-luciferase luminescence, Hep G2 cells
[14] = mRNA (SEQ ID NO: 2) LNP, 100 ng/mL, 72 hours post transfection, luciferase activity
[15] = cirRNA (SEQ ID NO: 1) LNPs, firefly-luciferase luminescence, RAW 264.7 cells
[16] = cirRNA (SEQ ID NO: 1) LNPs, Hep G2 cells
[17] = mRNA (SEQ ID NO: 2) LNP, 1 μg/mL, 72 hours post transfection
[18] = cirRNA (SEQ ID NO: 1) LNPs, RAW 264.7 cells
[19] = cirRNA (SEQ ID NO: 1) LNPs, BALB/C mice
[20] = mRNA (SEQ ID NO: 2) LNP, 0.05 mg*kg-1 intravenous, 6 hours post injection

| Structure (SMILES) | PDI ([1]; LNP with cirRNA (SEQ ID NO: 1)) | Size ([1]; LNP with cirRNA (SEQ ID NO: 1)) | PDI ([1]; LNP with mRNA (SEQ ID NO: 2)) | Size ([1]; LNP with mRNA (SEQ ID NO: 2)) | Zeta (mV) ([2]; LNP with cirRNA (SEQ ID NO: 1)) | Zeta (mV) ([2]; LNP with mRNA (SEQ ID NO: 2)) | Encapsulation Efficiency % [3] | Encapsulation Efficiency [3] | MCP-I in Sera 2 hours After 0.5 MPK Injection [9] | In vitro Expression HepG2 [4, 13] | In vitro Expression HepG2 [4, 14] | In vitro Expression RAW [5, 15] | In vitro Expression RAW [5, 14] | In vitro Viability HepG2 [6, 16] | In vitro Viability HepG2 [6, 17] | In vitro Viability RAW [7, 18] | In vitro Viability RAW [7, 17] | In vivo Expression (Whole Body) [8, 19] | In vivo Expression (Whole Body) [8, 20] | ALT in Sera (IU/L) 2 hours After 0.5 MPK Injection [10] | further results |
| --- | --- | --- | --- | --- | --- | --- | --- | --- | --- | --- | --- | --- | --- | --- | --- | --- | --- | --- | --- | --- | --- |
| CCCCCCCCC(CCCCCC)C(=O)OCCCCCCCCN(CCCCCCCCOC(=O)C(CCCCCC)CCCCCCCC)CCOC(=O)NCCN(C)C (stereo not shown) [Lipid 6, 10-(8-((2-hexyldecanoyl)oxy)octyl)-2-methyl-6-oxo-7-oxa-2,5,10-triazaoctadecan-18-yl 2-hexyldecanoate] | 0.06 | 87.2 | 0.03302 | 106.5 | −2.24 mV | 4.201 mV | 96% | 93.16% | 7009.50 pg/mL | 1.82E+08 | 2.28E+08 | 1.11E+07 | 1.21E+07 | 89% | 113% | 100% | 77% | 1.21E+09 | 1.91E+09 | 99.33 IU/L | MCP-I in Sera 24 hours After 0.5 MPK Injection [9]: 1653.42 pg/mL; ALT in Sera (IU/L) 24 hours After 0.5 MPK Injection [10]: 181.67 IU/L; AST in Sera (IU/L) 2 hours After 0.5 MPK Injection [11]: 316.00 IU/L; AST in Sera (IU/L) 24 hours After 0.5 MPK Injection [11]: 411.00 IU/L; Footpad Thickness (24 h−0 h, mm) [12]: 0.44 mm |
| CCCCCCCCCCC(CCCCCCCC)COC(=O)CCCCCN(CCCCCCCCOC(=O)C(CCCCCC)CCCCCCCC)CCOC(=O)NCCN(C)C (stereo not shown) [Lipid 51, 2-octyldodecyl 10-(8-((2-hexyldecanoyl)oxy)octyl)-2-methyl-6-oxo-7-oxa-2,5,10-triazahexadecan-16-oate] | 0.04 | 89.19 | 0.1368 | 79.21 | −0.71 mV | 3.197 mV | 97% | 89% | 3296.20 pg/mL | 9.85E+05 | 4.66E+07 | 8.74E+06 | 2.63E+06 | 88% | 83% | 104% | 80% | 6.85E+08 | 1.78E+09 | 71.07 IU/L | MCP-I in Sera 24 hours After 0.5 MPK Injection [9]: 562.40 pg/mL; ALT in Sera (IU/L) 24 hours After 0.5 MPK Injection [10]: 45.50 IU/L; AST in Sera (IU/L) 2 hours After 0.5 MPK Injection [11]: 193.77 IU/L; AST in Sera (IU/L) 24 hours After 0.5 MPK Injection [11]: 94.73 IU/L; Footpad Thickness (24 h−0 h, mm) [12]: 1.11 mm |
| CCCCC/C=C\C/C=C\CCCCCCCCN(CCCCCCCC/C=C\CCCCCCCC)CCOC(=O)NCc1ncc[nH]1 [Lipid 68, 2-(((Z)-octadec-9-en-1-yl)((9Z,12Z)-octadeca-9,12-dien-1-yl)amino)ethyl ((1H-imidazol-2-yl)methyl)carbamate] | 0.12 | 57.94 | 0.1057 | 61.9 | −0.647 mV | 5.641 mV | 92% | 88% | 129.34 pg/mL | 2.63E+06 | 3.74E+03 | 6.86E+05 | 5.58E+02 | 99% | 100% | 67% | 104% | 1.34E+08 | 1.54E+08 | 40.77 IU/L | ALT in Sera (IU/L) 24 hours After 0.5 MPK Injection [10]: 33.37 IU/L; AST in Sera (IU/L) 2 hours After 0.5 MPK Injection [11]: 81.27 IU/L; AST in Sera (IU/L) 24 hours After 0.5 MPK Injection [11]: 60.20 IU/L; Footpad Thickness (24 h−0 h, mm) [12]: 1.00 mm |

The next lines start with results.

| PDI ([1]; LNP with cirRNA (SEQ ID NO: 1)) | Size ([1]; LNP with cirRNA (SEQ ID NO: 1)) | PDI ([1]; LNP with mRNA (SEQ ID NO: 2)) | Size ([1]; LNP with mRNA (SEQ ID NO: 2)) | Zeta (mV) ([2]; LNP with cirRNA (SEQ ID NO: 1)) | Zeta (mV) ([2]; LNP with mRNA (SEQ ID NO: 2)) | Encapsulation Efficiency % [3] | Encapsulation Efficiency [3] | MCP-I in Sera 2 hours After 0.5 MPK Injection [9] | Structure (SMILES) | In vitro Expression HepG2 [4, 13] | In vitro Expression HepG2 [4, 14] | In vitro Expression RAW [5, 15] | In vitro Expression RAW [5, 14] | In vitro Viability HepG2 [6, 16] | In vitro Viability HepG2 [6, 17] | In vitro Viability RAW [7, 18] | In vitro Viability RAW [7, 17] | In vivo Expression (Whole Body) [8, 19] | In vivo Expression (Whole Body) [8, 20] | ALT in Sera (IU/L) 2 hours After 0.5 MPK Injection [10] | further results |
| --- | --- | --- | --- | --- | --- | --- | --- | --- | --- | --- | --- | --- | --- | --- | --- | --- | --- | --- | --- | --- | --- |
| 0.04 | 91.2 | 0.09046 | 67.1 | 1.26 mV | 12.6 mV | 95% | 88% | 5561.83 pg/mL | CCCCCCCCC(CCCCCC)C(=O)OCCCCCCCCN(CCCCCCCCCCC(=O)OCCCCCC)CCOC(=O)NCCN(C)C (stereo not shown) [Lipid 43, hexyl 10-(8-((2-hexyldecanoyl)oxy)octyl)-2-methyl-6-oxo-7-oxa-2,5,10-triazahenicosan-21-oate] | 1.75E+04 | 1.33E+06 | 1.10E+05 | 9.60E+04 | 97% | 97% | 97% | 88% | 6.22E+08 | 1.98E+08 | 57.07 IU/L | MCP-I in Sera 24 hours After 0.5 MPK Injection [9]: 17.57 pg/mL; ALT in Sera (IU/L) 24 hours After 0.5 MPK Injection [10]: 41.53 IU/L; AST in Sera (IU/L) 2 hours After 0.5 MPK Injection [11]: 135.60 IU/L; AST in Sera (IU/L) 24 hours After 0.5 MPK Injection [11]: 88.97 IU/L; Footpad Thickness (24 h−0 h, mm) [12]: 0.33 mm |
| 0.05 | 86.66 | 0.09823 | 75.46 | −2.1 mV | 2.213 mV | 96% | 88.25% | 7911.52 pg/mL | CCCCCCCCC(CCCCCCCC)OC(=O)CCCCCCCN(CCCCCCCCOC(=O)C(CCCCCC)CCCCCCCC)CCOC(=O)NCCN(C)C (stereo not shown) [Lipid 66, heptadecan-9-yl 10-(8-((2-hexyldecanoyl)oxy)octyl)-2-methyl-6-oxo-7-oxa-2,5,10-triazaoctadecan-18-oate] | 9.78E+07 | 1.59E+08 | 9.90E+06 | 6.79E+06 | 93% | 82% | 100% | 72% | 2.03E+09 | 3.50E+09 | 51.97 IU/L | MCP-I in Sera 24 hours After 0.5 MPK Injection [9]: 448.43 pg/mL; ALT in Sera (IU/L) 24 hours After 0.5 MPK Injection [10]: 63.6 IU/L; AST in Sera (IU/L) 2 hours After 0.5 MPK Injection [11]: 176.40 IU/L; AST in Sera (IU/L) 24 hours After 0.5 MPK Injection [11]: 148.60 IU/L; Footpad Thickness (24 h−0 h, mm) [12]: 1.43 mm |
